According to PMC5830651 (Molecular Oncology, 2018):

Columns and labels:
Assay type in all cases: biochemical
[1] = biological target: T1, FLT3 (Homo sapiens, UniProt P36888); assay: in vitro kinase assay
T1 construct: recombinant
T1 sequence (P36888 27-993): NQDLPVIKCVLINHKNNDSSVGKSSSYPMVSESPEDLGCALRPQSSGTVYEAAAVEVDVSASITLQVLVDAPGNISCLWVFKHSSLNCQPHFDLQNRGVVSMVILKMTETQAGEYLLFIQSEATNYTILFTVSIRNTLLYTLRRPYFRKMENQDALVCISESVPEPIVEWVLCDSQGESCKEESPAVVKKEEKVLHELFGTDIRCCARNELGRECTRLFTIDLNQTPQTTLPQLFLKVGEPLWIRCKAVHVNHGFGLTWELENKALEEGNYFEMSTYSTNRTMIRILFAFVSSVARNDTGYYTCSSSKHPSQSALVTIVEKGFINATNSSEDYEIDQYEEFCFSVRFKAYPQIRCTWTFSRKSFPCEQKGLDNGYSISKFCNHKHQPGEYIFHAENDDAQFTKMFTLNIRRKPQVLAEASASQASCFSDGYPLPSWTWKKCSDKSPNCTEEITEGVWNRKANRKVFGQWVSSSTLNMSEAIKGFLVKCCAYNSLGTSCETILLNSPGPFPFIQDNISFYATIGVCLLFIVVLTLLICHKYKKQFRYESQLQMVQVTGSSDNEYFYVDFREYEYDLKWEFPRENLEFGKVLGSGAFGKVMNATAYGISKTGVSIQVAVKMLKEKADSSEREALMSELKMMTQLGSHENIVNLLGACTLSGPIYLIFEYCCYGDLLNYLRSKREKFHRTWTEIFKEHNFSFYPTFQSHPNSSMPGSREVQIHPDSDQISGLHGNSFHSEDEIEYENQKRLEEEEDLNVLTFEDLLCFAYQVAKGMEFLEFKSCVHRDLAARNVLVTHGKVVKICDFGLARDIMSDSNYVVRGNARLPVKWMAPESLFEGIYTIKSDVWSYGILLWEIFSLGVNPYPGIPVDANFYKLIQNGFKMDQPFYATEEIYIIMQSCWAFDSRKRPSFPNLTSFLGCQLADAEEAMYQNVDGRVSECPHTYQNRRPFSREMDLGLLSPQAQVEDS
From the text: in vitro kinase assay on FLT3

[2] = biological target: T2, SRC (Homo sapiens, UniProt P12931); assay: in vitro kinase assay
T2 construct: recombinant
T2 sequence (P12931 2-536): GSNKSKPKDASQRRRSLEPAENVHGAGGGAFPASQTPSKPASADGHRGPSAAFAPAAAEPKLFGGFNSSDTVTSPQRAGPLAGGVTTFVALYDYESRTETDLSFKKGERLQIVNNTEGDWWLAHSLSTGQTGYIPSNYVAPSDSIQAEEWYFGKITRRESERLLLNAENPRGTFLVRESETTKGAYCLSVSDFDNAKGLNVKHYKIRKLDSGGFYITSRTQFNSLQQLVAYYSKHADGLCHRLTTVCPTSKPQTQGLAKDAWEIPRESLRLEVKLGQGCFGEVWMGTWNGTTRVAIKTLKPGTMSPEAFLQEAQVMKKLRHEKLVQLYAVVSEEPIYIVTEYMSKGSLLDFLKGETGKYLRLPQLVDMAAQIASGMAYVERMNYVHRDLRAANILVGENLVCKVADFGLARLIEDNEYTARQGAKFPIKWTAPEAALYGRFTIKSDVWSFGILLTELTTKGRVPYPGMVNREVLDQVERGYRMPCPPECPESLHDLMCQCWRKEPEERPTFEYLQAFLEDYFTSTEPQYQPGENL
From the text: in vitro kinase assay on SRC

[3] = biological target: T3, ABL (Homo sapiens, UniProt P00519); assay: in vitro kinase assay
T3 construct: gene ABL1; recombinant
T3 sequence (P00519 whole entry): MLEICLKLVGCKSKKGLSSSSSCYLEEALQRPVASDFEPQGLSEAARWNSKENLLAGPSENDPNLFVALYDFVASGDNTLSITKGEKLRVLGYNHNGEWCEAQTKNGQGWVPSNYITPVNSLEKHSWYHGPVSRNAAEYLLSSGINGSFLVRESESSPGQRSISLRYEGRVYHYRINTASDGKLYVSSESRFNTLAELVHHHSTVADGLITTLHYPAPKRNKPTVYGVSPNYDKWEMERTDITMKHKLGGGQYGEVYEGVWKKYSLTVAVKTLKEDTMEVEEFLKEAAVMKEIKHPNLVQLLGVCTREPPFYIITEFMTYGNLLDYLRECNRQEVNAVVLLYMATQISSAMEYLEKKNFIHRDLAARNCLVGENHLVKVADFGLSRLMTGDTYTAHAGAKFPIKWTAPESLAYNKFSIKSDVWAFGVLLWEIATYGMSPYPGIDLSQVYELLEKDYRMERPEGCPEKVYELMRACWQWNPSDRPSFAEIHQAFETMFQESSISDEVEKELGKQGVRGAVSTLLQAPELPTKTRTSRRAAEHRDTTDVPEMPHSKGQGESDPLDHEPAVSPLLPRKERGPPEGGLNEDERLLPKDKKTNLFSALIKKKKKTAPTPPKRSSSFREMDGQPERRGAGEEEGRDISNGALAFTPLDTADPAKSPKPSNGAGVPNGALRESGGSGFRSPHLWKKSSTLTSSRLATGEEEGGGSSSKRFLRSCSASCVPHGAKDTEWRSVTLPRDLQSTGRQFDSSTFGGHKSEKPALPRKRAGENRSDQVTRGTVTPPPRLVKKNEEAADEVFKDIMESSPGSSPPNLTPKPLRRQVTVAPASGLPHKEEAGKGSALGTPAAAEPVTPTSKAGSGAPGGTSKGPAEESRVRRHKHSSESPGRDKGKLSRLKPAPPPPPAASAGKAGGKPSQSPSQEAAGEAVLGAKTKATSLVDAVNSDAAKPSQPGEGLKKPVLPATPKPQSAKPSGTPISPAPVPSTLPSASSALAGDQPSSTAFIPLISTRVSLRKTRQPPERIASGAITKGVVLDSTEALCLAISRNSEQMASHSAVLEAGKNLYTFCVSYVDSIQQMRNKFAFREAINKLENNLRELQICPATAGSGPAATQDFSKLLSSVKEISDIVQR
From the text: in vitro kinase assay on ABL

[4] = biological target: T4, CDK1/B (CDK1/cyclin B) (Homo sapiens, UniProt P06493); assay: in vitro kinase assay; details: read-out: CCT068127 Mean IC50 (μmol.L^-1) ± SE; mean of three independent repeats
T4 construct: recombinant human kinase complex; with G2/mitotic-specific cyclin-B1
T4 sequence (P06493 whole entry): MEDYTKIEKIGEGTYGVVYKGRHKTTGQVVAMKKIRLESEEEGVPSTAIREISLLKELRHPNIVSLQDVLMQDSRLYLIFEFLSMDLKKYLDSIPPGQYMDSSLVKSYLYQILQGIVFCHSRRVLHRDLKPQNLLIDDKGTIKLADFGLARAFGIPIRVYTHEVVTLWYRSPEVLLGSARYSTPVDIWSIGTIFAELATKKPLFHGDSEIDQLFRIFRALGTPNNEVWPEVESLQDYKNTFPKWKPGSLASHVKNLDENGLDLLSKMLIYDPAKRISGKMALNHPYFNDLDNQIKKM
T4 sequence (P14635 whole entry partner): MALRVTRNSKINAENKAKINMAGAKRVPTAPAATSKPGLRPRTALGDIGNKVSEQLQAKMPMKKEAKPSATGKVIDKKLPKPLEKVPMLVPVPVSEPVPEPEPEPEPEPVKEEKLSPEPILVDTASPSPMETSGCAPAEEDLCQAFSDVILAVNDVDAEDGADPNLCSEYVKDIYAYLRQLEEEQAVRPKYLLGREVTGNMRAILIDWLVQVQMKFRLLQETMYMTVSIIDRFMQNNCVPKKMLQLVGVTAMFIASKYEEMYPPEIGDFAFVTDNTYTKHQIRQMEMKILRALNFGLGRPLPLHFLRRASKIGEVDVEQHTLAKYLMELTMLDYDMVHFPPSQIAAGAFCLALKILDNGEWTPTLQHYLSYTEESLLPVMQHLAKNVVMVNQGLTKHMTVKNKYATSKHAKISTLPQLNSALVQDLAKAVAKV
From the text: in vitro kinase assay on CDK1/B (CDK1/cyclin B)

[5] = biological target: T5, AURKA (Homo sapiens, UniProt O14965); assay: in vitro kinase assay
T5 construct: recombinant
T5 sequence (O14965 1-403): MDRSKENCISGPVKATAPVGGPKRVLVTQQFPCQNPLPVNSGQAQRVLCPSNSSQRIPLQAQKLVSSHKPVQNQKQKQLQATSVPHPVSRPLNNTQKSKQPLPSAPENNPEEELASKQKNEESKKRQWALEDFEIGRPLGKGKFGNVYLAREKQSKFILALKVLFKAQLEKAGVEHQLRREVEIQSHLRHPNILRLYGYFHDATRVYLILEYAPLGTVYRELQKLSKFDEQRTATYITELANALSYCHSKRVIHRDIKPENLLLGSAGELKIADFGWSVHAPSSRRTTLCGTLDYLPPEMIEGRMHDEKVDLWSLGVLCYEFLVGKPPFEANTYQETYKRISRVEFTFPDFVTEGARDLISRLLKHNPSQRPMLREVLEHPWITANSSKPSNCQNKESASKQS
From the text: in vitro kinase assay on AURKA

[6] = biological target: T6, CDK5/p35 (Homo sapiens, UniProt Q00535); assay: Invitrogen Select Screen kinase assay; details: read-out: CCT068127 Mean IC50 (μmol.L^-1) ± SE; mean of two determinations
T6 construct: recombinant complex, Invitrogen Select Screen service
T6 sequence (Q00535 whole entry): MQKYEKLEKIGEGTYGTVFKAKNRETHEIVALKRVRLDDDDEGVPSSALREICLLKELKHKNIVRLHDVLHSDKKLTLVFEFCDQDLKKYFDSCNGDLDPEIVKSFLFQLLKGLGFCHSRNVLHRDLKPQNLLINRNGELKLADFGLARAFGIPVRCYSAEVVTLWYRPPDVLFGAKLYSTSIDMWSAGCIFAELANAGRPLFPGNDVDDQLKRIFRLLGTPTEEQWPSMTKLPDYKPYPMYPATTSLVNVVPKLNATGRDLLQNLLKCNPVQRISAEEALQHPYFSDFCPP
T6 sequence (Q15078 2-307 partner): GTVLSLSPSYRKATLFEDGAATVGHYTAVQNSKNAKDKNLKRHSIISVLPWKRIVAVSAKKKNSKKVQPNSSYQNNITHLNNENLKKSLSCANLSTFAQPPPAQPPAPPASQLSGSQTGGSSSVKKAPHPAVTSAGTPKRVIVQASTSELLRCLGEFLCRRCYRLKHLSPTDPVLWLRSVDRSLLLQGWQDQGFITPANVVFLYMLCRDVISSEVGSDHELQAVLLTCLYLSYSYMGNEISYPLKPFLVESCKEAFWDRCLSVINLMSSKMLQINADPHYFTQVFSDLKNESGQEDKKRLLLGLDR
From the text: Invitrogen Select Screen kinase assay on CDK5/p35

[7] = biological target: T7, SAP2KA (Homo sapiens, UniProt Q16539); assay: in vitro kinase assay
T7 construct: gene MAPK14; recombinant; printed SAP2KA, read as SAPK2A
From the text: in vitro kinase assay on SAP2KA

[8] = biological target: T8, ERK2 (Homo sapiens, UniProt P28482); assay: in vitro kinase assay
T8 construct: gene MAPK1; recombinant
From the text: in vitro kinase assay on ERK2

[9] = biological target: T9, CDK6/D3 (Homo sapiens, UniProt Q00534); assay: in vitro kinase assay; details: read-out: CCT068127 Mean IC50 (μmol.L^-1) ± SE; mean of three independent repeats
T9 construct: recombinant human kinase complex; with G1/S-specific cyclin-D3
T9 sequence (Q00534 whole entry): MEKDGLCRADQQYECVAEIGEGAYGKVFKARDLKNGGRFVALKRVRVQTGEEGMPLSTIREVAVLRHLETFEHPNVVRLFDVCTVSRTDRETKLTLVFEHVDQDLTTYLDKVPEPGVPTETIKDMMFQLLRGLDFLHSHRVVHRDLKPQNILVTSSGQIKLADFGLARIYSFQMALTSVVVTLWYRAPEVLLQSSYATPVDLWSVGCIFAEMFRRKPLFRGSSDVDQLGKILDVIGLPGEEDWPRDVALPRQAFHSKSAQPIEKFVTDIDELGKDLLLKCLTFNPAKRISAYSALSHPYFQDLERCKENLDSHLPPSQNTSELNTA
T9 sequence (P30281 whole entry partner): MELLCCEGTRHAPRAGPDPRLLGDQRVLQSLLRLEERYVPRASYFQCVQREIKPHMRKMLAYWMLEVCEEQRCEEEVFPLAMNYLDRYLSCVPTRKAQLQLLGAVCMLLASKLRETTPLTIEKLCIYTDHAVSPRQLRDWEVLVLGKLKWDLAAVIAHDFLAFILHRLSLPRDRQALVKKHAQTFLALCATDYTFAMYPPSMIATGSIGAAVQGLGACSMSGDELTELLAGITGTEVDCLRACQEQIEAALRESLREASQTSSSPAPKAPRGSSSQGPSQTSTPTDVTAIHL
From the text: in vitro kinase assay on CDK6/D3

[10] = biological target: T10, LCK (Homo sapiens, UniProt P06239); assay: in vitro kinase assay
T10 construct: recombinant
T10 sequence (P06239 2-509): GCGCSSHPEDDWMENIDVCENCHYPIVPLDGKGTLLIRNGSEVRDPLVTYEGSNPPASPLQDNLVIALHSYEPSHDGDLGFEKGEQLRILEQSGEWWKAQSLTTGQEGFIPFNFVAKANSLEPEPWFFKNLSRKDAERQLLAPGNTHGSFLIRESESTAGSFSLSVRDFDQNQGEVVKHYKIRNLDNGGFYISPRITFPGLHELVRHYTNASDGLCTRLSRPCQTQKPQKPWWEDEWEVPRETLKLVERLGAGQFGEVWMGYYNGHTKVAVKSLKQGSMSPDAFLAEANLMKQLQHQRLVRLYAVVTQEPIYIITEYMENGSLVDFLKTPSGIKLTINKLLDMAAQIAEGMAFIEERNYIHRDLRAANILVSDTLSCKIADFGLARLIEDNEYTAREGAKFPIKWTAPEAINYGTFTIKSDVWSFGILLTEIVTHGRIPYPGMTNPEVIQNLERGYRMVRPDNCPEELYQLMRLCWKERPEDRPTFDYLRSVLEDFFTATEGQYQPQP
From the text: in vitro kinase assay on LCK

[11] = biological target: T11, PDGFB (Homo sapiens, UniProt P09619); assay: in vitro kinase assay
T11 construct: gene PDGFRB; recombinant kinase; printed PDGFB, must be the receptor kinase PDGFR beta
From the text: in vitro kinase assay on PDGFB

[12] = biological target: T12, PLK1 (Homo sapiens, UniProt P53350); assay: in vitro kinase assay
T12 construct: recombinant
T12 sequence (P53350 2-603): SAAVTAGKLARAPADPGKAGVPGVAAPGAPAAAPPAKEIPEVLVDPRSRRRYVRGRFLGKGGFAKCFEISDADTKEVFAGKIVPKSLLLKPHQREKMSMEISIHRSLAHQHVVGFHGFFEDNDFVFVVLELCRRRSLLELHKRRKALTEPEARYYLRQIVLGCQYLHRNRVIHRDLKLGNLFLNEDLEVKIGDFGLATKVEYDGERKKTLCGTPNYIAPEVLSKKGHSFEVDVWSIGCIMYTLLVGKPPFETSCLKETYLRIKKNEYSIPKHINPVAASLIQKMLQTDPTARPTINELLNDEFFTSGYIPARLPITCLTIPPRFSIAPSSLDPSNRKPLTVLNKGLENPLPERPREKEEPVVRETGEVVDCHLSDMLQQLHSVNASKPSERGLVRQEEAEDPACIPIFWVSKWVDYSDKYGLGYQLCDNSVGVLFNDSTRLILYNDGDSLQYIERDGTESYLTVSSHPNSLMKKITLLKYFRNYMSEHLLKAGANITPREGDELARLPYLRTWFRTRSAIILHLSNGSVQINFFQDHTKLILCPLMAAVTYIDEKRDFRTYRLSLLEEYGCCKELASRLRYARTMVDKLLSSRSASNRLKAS
From the text: in vitro kinase assay on PLK1

IC50 [1]: > 10 µM
IC50 [2]: > 10 µM
IC50 [3]: > 10 µM
IC50 [4]: 1.1 ± 0.29 µmol/L
IC50 [5]: > 10 µM
IC50 [6]: 0.07 µmol/L
IC50 [7]: > 10 µM
IC50 [8]: > 10 µM
IC50 [9]: 6.2 ± 0.6 µmol/L
IC50 [10]: > 10 µM
IC50 [11]: > 10 µM
IC50 [12]: > 10 µM
SMILES: CC[C@H](Nc1nc(NCc2cccnc2)c2ncn(C(C)C)c2n1)[C@@H](C)O [CCT068127]
